Tests used:
[1] = system: endogenous suppression of T cells caused by cancer lesions; experiment: NSAID codelivered for contrasuppression in the NCM regimen; type: in vivo, human; conditions: for effectiveness as NSAID for blocking endogenous suppression of T cells: codelivery with low dose cyclophosphamide and NCM
Source text: It is preferable to block endogenous suppression of T cells, such as caused by various cancer lesions. Blocking is effected by the codelivery of low dose cyclophosphamide and a nonsteroidal anti-inflammatory drug (NSAID). The NSAID of choice is indomethacin. […] Side effects of NSAIDs are to be aggressively treated with […] and a prostaglandin E analog. Zinc and multivitamins are useful agents to help restore T cell immunity. Treatment with contrasuppression and zinc without the NCM is ineffective.

[2] = system: T lymphocytes; experiment: Cytokine induction by OKT-3 and/or PHA plus Ciprofloxacin, cells incubated in flasks; type: cell-based, human
Source text: The buffy coat white cells of human blood from multiple HIV-negative hepatitis virus-negative donors is collected. In an alternative embodiment, animals are the cell source for veterinary uses. The cells from the donors are pooled and layered on ficoll hypaque gradients (Pharmacia) to yield lymphocytes free of neutrophils and erythrocytes. Alternative methods could be used that would result in the same starting lymphocyte population as are known in the art.
The lymphocytes are washed and distributed in X vivo-10 media (Whittaker Bioproducts) to surface activated cell culture flasks for selection of cell subsets (MICROCELLECTOR™ T-25 Cell Culture Flasks), which contain immobilized stimulants, i.e., mitogens like PHA. In one set of experiments, X vivo-15 and X vivo-20 media were used as indicated. The immobilization process for the stimulants is as described by the manufacturer for immobilizing various substances for panning procedures, i.e., separating cells, in the flasks. Alternatively, the lymphocytes are exposed to stimulants e.g., PHA for 2-4 hours then washed three times.
The cells are incubated for 24 to 48 hours in X vivo-10 media with 80 μg/ml Ciprofloxacin (Miles Lab) at 37° in a CO2/air incubator. […] Generally, the HSA is used at 0.1 to 0.5% (weight by volume). Following incubation, the supernatants are poured off and collected. Human serum albumin (HSA) may be added to stabilize further the interleukins if HSA-free media is used for generations. The supernatants are store at 4° C. to −70°.

[3] = system: thymocyte and splenocyte; conditions: in vivo thymosin α1 5 μg/animal/day, NCM 50 units IL-2 equivalence; FIGS. 21, 22; cited from earlier work

COc1ccc2c(c1)c(CC(=O)O)c(C)n2C(=O)c1ccc(Cl)cc1 [indomethacin]
toxicity ([1]; as NSAID of the regimen): arguably the most toxic
effectiveness as NSAID for blocking endogenous suppression of T cells [1]: most effective NSAID

OKT-3: monoclonal antibody (Ortho) which induces T lymphocytes to proliferate and produce interleukins
GM-CSF [2]: 75 pg/mL
IFN-Y [2]: 11280 pg/mL
IL-1-β [2]: 1125 pg/mL
IL-6 [2]: 1980 pg/mL
TNF-α [2]: 2500 pg/mL

CS(=O)(=O)c1ccc(C2=C(c3ccccc3)C(=O)OC2)cc1 [Vioxx®]
toxicity ([1]; as NSAID of the regimen): causing gastritis in many patients
effectiveness as NSAID for blocking endogenous suppression of T cells [1]: less effective

CC(C)Cc1ccc(C(C)C(=O)O)cc1 (stereo not shown) [Ibuprofen]
histological responses ([1]; as NSAID of the regimen): characteristic of a TH2 rather than TH1 mediated response
effectiveness as NSAID for blocking endogenous suppression of T cells [1]: effective

Cc1ccc(-c2cc(C(F)(F)F)nn2-c2ccc(S(N)(=O)=O)cc2)cc1 [Celebrex®]
effectiveness as NSAID for blocking endogenous suppression of T cells [1]: less effective

Thymosin α1
thymocyte and splenocyte in vitro responses to media, rIL-1, rIL-2 and NCM [3]: increase many of the responses

Source: patent publication US7731945B2, “Immunotherapy for reversing immune suppression” (Immuno-Rx, Inc., priority 2001, dated 2010)
